{"source": "paper doi:10.1101/094631v2", "about": "(biorxiv, 2017)", "biological_target": "BIKE kinase domain (biotinylated) (Homo sapiens, UniProt Q9NSY1)", "sequence (Q9NSY1 38-345 limits assumed)": "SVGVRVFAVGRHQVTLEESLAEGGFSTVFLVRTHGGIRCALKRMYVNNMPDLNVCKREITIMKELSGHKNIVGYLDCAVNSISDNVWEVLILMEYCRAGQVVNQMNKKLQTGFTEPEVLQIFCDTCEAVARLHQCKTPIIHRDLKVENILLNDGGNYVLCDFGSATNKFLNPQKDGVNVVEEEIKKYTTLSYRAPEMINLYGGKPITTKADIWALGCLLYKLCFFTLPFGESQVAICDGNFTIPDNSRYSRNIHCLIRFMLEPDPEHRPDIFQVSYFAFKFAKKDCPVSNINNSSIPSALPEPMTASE", "assay": "TR-FRET tracer displacement", "assay_type": "binding"}
{"compound": "CC(C)C(=O)Nc1n[nH]c2cc(-c3cccc(NS(=O)(=O)C4CC4)c3)ccc12", "note": "[compound 2, N-(6-(3-(cyclopropanesulfonamido)phenyl)-1H-indazol-3-yl)isobutyramide]", "values": [{"measurement": "Ki", "result": 3.1, "unit": "µM"}]}
